Like-named read-outs stand apart in the source and are kept apart here.
Tests used:
EmrE [1] = target: T1, EmrE (Escherichia coli, UniProt P23895, S64V); assay: biochemical
EmrE [2] = target: EmrE (Escherichia coli, UniProt P23895, M21G); assay: biochemical
EmrE [3] = target: EmrE (Escherichia coli, UniProt P23895, N102V); assay: biochemical
EmrE [4] = target: EmrE (Escherichia coli, UniProt P23895, A59L); assay: biochemical
EmrE [5] = target: EmrE (Escherichia coli, UniProt P23895); assay: [3H]-TPP+ saturation binding, purified protein in DDM
EmrE [6] = target: T1, EmrE; assay: biochemical; remark: listed apart in the source
EmrE [7] = target: EmrE (Escherichia coli, UniProt P23895, I101G); assay: biochemical
EmrE [8] = target: EmrE (Escherichia coli, UniProt P23895, G90V); assay: biochemical
EmrE [9] = target: EmrE (Escherichia coli, UniProt P23895, N102A); assay: biochemical
[10] = target: the molecule itself; assay: 1H-15N TROSY-HSQC NMR (peak doubling of the asymmetric homodimer)

## CC[P+](c1ccccc1)(c1ccccc1)c1ccccc1 [EtTPP^+]
EmrE [1]
  Kd: 11400 ± 100 nM

## C[P+](c1ccccc1)(c1ccccc1)c1ccccc1 [MeTPP^+]
EmrE [1]
  Kd: 60000 ± 10000 nM

## c1ccc([P+](c2ccccc2)(c2ccccc2)c2ccccc2)cc1 [TPP^+]
EmrE [2]
  Kd: 4 ± 0.7 nM
EmrE [3]
  Kd: 1.2 ± 0.2 nM
EmrE [4]
  Kd: 23.4 ± 2.4 nM
EmrE [5]
  Kd: 0.8 ± 0.1 nM
EmrE [6]
  Kd: 1 ± 0.6 nM
EmrE [7]
  Kd: 2.6 ± 1.3 nM
EmrE [8]
  Kd: 5.3 ± 0.6 nM
EmrE [9]
  Kd: 2.3 ± 0.4 nM

B1: wild type EmrE (natural protein)
chain: MNPYIYLGGAILAEVIGTTLMKFSEGFTRLWPSVGTIICYCASFWLLAQTLAYIPTGIAYAIWSGVGIVLISLLSWGFFGQRLDLPAIIGMMLICAGVLIINLLSRSTPH
[10]
  binding result: binds

B2: EmrE N102V (natural protein)
chain: MNPYIYLGGAILAEVIGTTLMKFSEGFTRLWPSVGTIICYCASFWLLAQTLAYIPTGIAYAIWSGVGIVLISLLSWGFFGQRLDLPAIIGMMLICAGVLIIVLLSRSTPH
[10]
  binding result: binds

B3: S64V-EmrE (natural protein)
chain: MNPYIYLGGAILAEVIGTTLMKFSEGFTRLWPSVGTIICYCASFWLLAQTLAYIPTGIAYAIWVGVGIVLISLLSWGFFGQRLDLPAIIGMMLICAGVLIINLLSRSTPH
[10]
  binding result: binds

B4: EmrE I101G (natural protein)
chain: MNPYIYLGGAILAEVIGTTLMKFSEGFTRLWPSVGTIICYCASFWLLAQTLAYIPTGIAYAIWSGVGIVLISLLSWGFFGQRLDLPAIIGMMLICAGVLIGNLLSRSTPH
[10]
  binding result: binds

B5: EmrE A59L (natural protein)
chain: MNPYIYLGGAILAEVIGTTLMKFSEGFTRLWPSVGTIICYCASFWLLAQTLAYIPTGILYAIWSGVGIVLISLLSWGFFGQRLDLPAIIGMMLICAGVLIINLLSRSTPH
[10]
  binding result: binds

B6: EmrE N102A (natural protein)
chain: MNPYIYLGGAILAEVIGTTLMKFSEGFTRLWPSVGTIICYCASFWLLAQTLAYIPTGIAYAIWSGVGIVLISLLSWGFFGQRLDLPAIIGMMLICAGVLIIALLSRSTPH
[10]
  binding result: binds

B7: EmrE M21G (natural protein)
chain: MNPYIYLGGAILAEVIGTTLGKFSEGFTRLWPSVGTIICYCASFWLLAQTLAYIPTGIAYAIWSGVGIVLISLLSWGFFGQRLDLPAIIGMMLICAGVLIINLLSRSTPH
[10]
  binding result: binds

Source: PMC6599891 (Journal of molecular biology, 2019)
